Tested on: P12-Ichikawa
Test: cell viability relative to DMSO control; higher = less cytotoxic
Settings: 48 h
Outline: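 NOMO1 or SEM cells were plated at 500 cells/well and P12-Ichikawa cells at 1000 cells/well in 1536-well plates (5 μl), after each leukemia line had been adapted for at least four passages in each medium. Pin dosing delivered library compounds in DMSO at 11 threefold concentrations, 47 μM to 0.79 nM. CellTiter-Glo One luminescence was read after 48 h at 37°C. Viability is reported as a per-plate percentage of DMSO wells, with cell-free wells as background.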

[1] = HPLM + 10% dialyzed FBS, 0.000781 µM
[2] = HPLM + 10% dialyzed FBS, 0.00234 µM
[3] = HPLM + 10% dialyzed FBS, 0.00702 µM
[4] = HPLM + 10% dialyzed FBS, 0.0211 µM
[5] = HPLM + 10% dialyzed FBS, 0.0632 µM
[6] = HPLM + 10% dialyzed FBS, 0.19 µM
[7] = HPLM + 10% dialyzed FBS, 0.569 µM
[8] = HPLM + 10% dialyzed FBS, 1.71 µM
[9] = HPLM + 10% dialyzed FBS, 5.12 µM
[10] = HPLM + 10% dialyzed FBS, 15.4 µM
[11] = HPLM + 10% dialyzed FBS, 46.1 µM
[12] = RPMI 5 mM glucose + 10% FBS, 0.000781 µM
[13] = RPMI 5 mM glucose + 10% FBS, 0.00234 µM
[14] = RPMI 5 mM glucose + 10% FBS, 0.00702 µM
[15] = RPMI 5 mM glucose + 10% FBS, 0.0211 µM
[16] = RPMI 5 mM glucose + 10% FBS, 0.0632 µM
[17] = RPMI 5 mM glucose + 10% FBS, 0.19 µM
[18] = RPMI 5 mM glucose + 10% FBS, 0.569 µM
[19] = RPMI 5 mM glucose + 10% FBS, 1.71 µM
[20] = RPMI 5 mM glucose + 10% FBS, 5.12 µM
[21] = RPMI 5 mM glucose + 10% FBS, 15.4 µM
[22] = RPMI 5 mM glucose + 10% FBS, 46.1 µM
[23] = RPMI 5 mM glucose + 10% dialyzed FBS, 0.000781 µM
[24] = RPMI 5 mM glucose + 10% dialyzed FBS, 0.00234 µM
[25] = RPMI 5 mM glucose + 10% dialyzed FBS, 0.00702 µM
[26] = RPMI 5 mM glucose + 10% dialyzed FBS, 0.0211 µM
[27] = RPMI 5 mM glucose + 10% dialyzed FBS, 0.0632 µM
[28] = RPMI 5 mM glucose + 10% dialyzed FBS, 0.19 µM
[29] = RPMI 5 mM glucose + 10% dialyzed FBS, 0.569 µM
[30] = RPMI 5 mM glucose + 10% dialyzed FBS, 1.71 µM
[31] = RPMI 5 mM glucose + 10% dialyzed FBS, 5.12 µM
[32] = RPMI 5 mM glucose + 10% dialyzed FBS, 15.4 µM
[33] = RPMI 5 mM glucose + 10% dialyzed FBS, 46.1 µM

Row | SMILES | cell viability [1] [%] | cell viability [2] [%] | cell viability [3] [%] | cell viability [4] [%] | cell viability [5] [%] | cell viability [6] [%] | cell viability [7] [%] | cell viability [8] [%] | cell viability [9] [%] | cell viability [10] [%] | cell viability [11] [%] | cell viability [12] [%] | cell viability [13] [%] | cell viability [14] [%] | cell viability [15] [%] | cell viability [16] [%] | cell viability [17] [%] | cell viability [18] [%] | cell viability [19] [%] | cell viability [20] [%] | cell viability [21] [%] | cell viability [22] [%] | cell viability [23] [%] | cell viability [24] [%] | cell viability [25] [%] | cell viability [26] [%] | cell viability [27] [%] | cell viability [28] [%] | cell viability [29] [%] | cell viability [30] [%] | cell viability [31] [%] | cell viability [32] [%] | cell viability [33] [%]
1 | C[C@@H]1CC[C@@]2(OC1)O[C@H]3C[C@H]4[C@@H]5C/C=C6/C[C@H](CC[C@]6(C)[C@H]5CC[C@]4(C)[C@H]3[C@@H]2C)O[C@@H]7O[C@H](CO)[C@@H](O[C@@H]8O[C@@H](C)[C@H](O)[C@@H](O)[C@H]8O)[C@H](O)[C@H]7O[C@@H]9O[C@@H](C)[C@H](O)[C@@H](O)[C@H]9O | 124 | 128 | 119 | 131 | 129 | 130 | 136 | 134 | 132 | 116 | 7.3 | – | – | – | – | – | – | – | – | – | – | – | – | – | – | – | – | – | – | – | – | – | –
2 | O=C1NC(=O)[C@@H](c2cn3c4c(cccc24)CCC3)[C@@H]1c1c[nH]c2ccccc12 | 99 | 96.4 | 103 | 98.7 | 105 | 103 | 93.8 | 56 | 23.3 | 20.7 | 18.5 | 93.1 | 111 | 102 | 107 | 107 | 102 | 90.9 | 48.4 | 11.9 | 17.9 | 14.3 | 105 | 105 | 99.9 | 111 | 117 | 113 | 109 | 78 | 34.6 | 30 | 33.1
3 | C=C(C)[C@@H]1CC[C@]2(C)CC[C@]3(C)[C@H](CC[C@@H]4[C@@]5(C)CC[C@H](O)C(C)(C)[C@@H]5CC[C@]43C)[C@@H]12 | 108 | 115 | 116 | 113 | 127 | 134 | 128 | 125 | 126 | 126 | 124 | – | – | – | – | – | – | – | – | – | – | – | 104 | 119 | 102 | 115 | 130 | 110 | 128 | 126 | 124 | 119 | 126
4 | Clc1cccc(-c2nnnn2Cc2cccnc2)c1Cl | 88.7 | 96 | 92.4 | 95.5 | 94.9 | 87.4 | 77.9 | 74.1 | 74.5 | 70.4 | 56.6 | 88.5 | 91.2 | 86.6 | 91.1 | 96.1 | 93.7 | 94.9 | 65.7 | 57 | 60.6 | 56.7 | 86.1 | 91.3 | 93.9 | 95.2 | 93.8 | 88.9 | 86.4 | 64.3 | 61.8 | 65.7 | 48.6
5 | CNC(=O)[C@H](Cc1ccccc1)NC(=O)[C@H](CC(C)C)[C@H](CSc1cccs1)C(=O)NO | 86.3 | 86.4 | 86.3 | 98.3 | 87.4 | 95.1 | 89.7 | 82.9 | 81.9 | 73.8 | 66.8 | 83.3 | 87.2 | 78.9 | 87 | 78 | 82.8 | 88.1 | 82.9 | 71 | 59.2 | 52.6 | 85.3 | 89.7 | 82.2 | 88.3 | 84.3 | 91 | 90.1 | 79.5 | 72.5 | 63.5 | 53
6 | CC(C)(C)/[N+]([O-])=C/c1ccc([S+](=O)([O-])[O][Na])cc1[S+](=O)([O-])[O][Na] | 110 | 114 | 112 | 122 | 117 | 131 | 127 | 125 | 121 | 119 | 133 | 108 | 96.5 | 108 | 111 | 120 | 123 | 127 | 122 | 126 | 124 | 122 | 108 | 114 | 114 | 121 | 113 | 120 | 124 | 123 | 120 | 119 | 116
7 | COc1cc2nccc(Oc3ccc(NC(=O)C4(C(=O)Nc5ccc(F)cc5)CC4)cc3)c2cc1OC | 114 | 91.5 | 122 | 111 | 115 | 111 | 118 | 113 | 96.3 | 71.7 | 34 | 112 | 112 | 116 | 117 | 119 | 116 | 112 | 114 | 106 | 82.5 | 19.7 | 106 | 118 | 120 | 121 | 123 | 124 | 113 | 113 | 101 | 60.5 | 28.9
8 | Cc1nc(Nc2ncc(C(=O)Nc3c(C)cccc3Cl)s2)cc(N2CCN(CCO)CC2)n1 | 108 | 104 | 110 | 104 | 111 | 107 | 107 | 69.6 | 14.2 | 15.5 | 15 | 106 | 109 | 102 | 108 | 113 | 109 | 107 | 102 | 56.8 | 21.3 | 23.4 | 104 | 104 | 113 | 103 | 107 | 106 | 109 | 99.3 | 45.5 | 33.7 | 35.3
